Results as given in PMC7582770, “Synthesis of “All-Cis” Trihydroxypiperidines from a Carbohydrate-Derived Ketone: Hints for the Design of New β-Gal and GCase Inhibitors” (Molecules, 2020).
pIC50: −log10 of the molar value. Entries after “also recorded” stand apart in the source; their conditions may differ.

Columns and labels:
[1] = biological target: T1, GCase in fibroblasts with the N370S/RecNcil mutation (Homo sapiens, UniProt P04062, N409S); assay: Pharmacological chaperoning activity (GCase activity in Gaucher patient fibroblasts); format: cell-based; settings: six concentrations (10 nM to 100 µM), 4 days incubation
T1 construct: Fibroblasts with the N370S/RecNcil mutation from patients with Gaucher disease; host or cells: human Gaucher patient fibroblasts, N370S/RecNciI
T1 sequence (P04062 40-536 N409S): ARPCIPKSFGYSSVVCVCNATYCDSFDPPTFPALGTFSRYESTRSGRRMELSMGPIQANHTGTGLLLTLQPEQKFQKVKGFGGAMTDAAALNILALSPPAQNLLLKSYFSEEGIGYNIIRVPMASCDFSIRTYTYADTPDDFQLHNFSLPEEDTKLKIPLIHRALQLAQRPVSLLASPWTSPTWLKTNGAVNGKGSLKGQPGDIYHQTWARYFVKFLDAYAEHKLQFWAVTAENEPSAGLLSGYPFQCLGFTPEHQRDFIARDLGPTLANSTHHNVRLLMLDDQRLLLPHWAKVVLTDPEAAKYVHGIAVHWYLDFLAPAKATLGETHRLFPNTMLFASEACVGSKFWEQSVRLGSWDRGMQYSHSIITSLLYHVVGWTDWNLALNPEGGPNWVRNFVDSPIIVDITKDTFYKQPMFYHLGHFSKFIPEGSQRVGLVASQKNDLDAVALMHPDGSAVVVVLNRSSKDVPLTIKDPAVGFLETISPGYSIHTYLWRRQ
Description: (§1) Fibroblasts with the N370S/RecNcil mutation from patients with Gaucher disease were obtained from the “Cell line and DNA Biobank from patients affected by Genetic Diseases” (Gaslini Hospital, Genova, Italy). Fibroblasts cells (15.0 × 10^4) were seeded in T25 flasks with DMEM supplemented with fetal bovine serum (10%), penicillin/streptomycin (1%), and glutamine (1%) and incubated at 37 °C with 5% CO2 for 24 h. The medium was removed, and fresh medium containing compound 10 was added to the cells and left for 4 days. The medium was removed, and the cells were washed with PBS and detached with trypsin to obtain cell pellets, which were washed four times with PBS, frozen, and lysed by sonication in water. Enzyme activity was measured as reported above. Reported data are mean S.D. (n = 2).
(§2) Pharmacological chaperoning activity
Fibroblasts with the N370S/RecNcil mutation from Gaucher disease patients were obtained from the “Cell line and DNA Biobank from patients affected by Genetic Diseases” (Gaslini Hospital, Genova, Italy). Fibroblasts cells (20.0 x 104) were seeded in T25 flasks with DMEM supplemented with fetal bovine serum (10%), penicillin/streptomycin (1%), and glutamine (1%) and incubated at 37 °C with 5% CO2 for 24 h. The medium was removed, and fresh medium containing the compounds 9, 10 or 12 at different concentrations (10 nM, 100 nM, 1 µM, 10 µM, 50 µM, 100 µM) was added to the cells and left for 4 days. The medium was removed, and the cells were washed with PBS and detached with trypsin to obtain cell pellets, which were washed four times with PBS, frozen and lysed by sonication in water. Enzyme activity was measured as reported above. Reported data are mean S.D. (n=2).
Figure S52: GCase activity in human fibroblasts derived from GD patients bearing N370/RecNcil mutations in the presence of compound 9.
Figure S53: GCase activity in human fibroblasts derived from GD patients bearing N370/RecNcil mutations in the presence of compound 10. The flasks containing cells incubated with 100 µM and 50 µM […]

[2] = tested on: β-mannosidase EC 3.2.1.25; assay: Commercial glycosidase screening; format: biochemical, snail; settings: 0.1 mM inhibitor
Description: (§3) A panel of 12 commercial glycosidases (α-L-fucosidase EC 3.2.1.51 from Homo sapiens, α-galactosidase EC 3.2.1.22 from coffee beans, β-galactosidases EC 3.2.1.23 from Escherichia coli and Aspergillus oryzae, α-glucosidases EC 3.2.1.20 from yeast and rice, amyloglucosidase EC 3.2.1.3 from Aspergillus niger, β-glucosidase EC 3.2.1.21 from almonds, α-mannosidase EC 3.2.1.24 from Jack beans, β-mannosidase EC 3.2.1.25 from snail, β-N-acetylglucosaminidases EC 3.2.1.52 from Jack beans and bovine kidney) purchased from Sigma-Aldrich (St. Louis, MO, USA) or Megazyme Ltd. (Bray, Co. Wicklow, Ireland) was screened.
(§4) The percentage (%) of inhibition towards the corresponding glycosidase was determined in quadruplicate in the presence of 100 μM of the inhibitor on the well. Each enzymatic assay (final volume 0.12 mL) contains 0.01–0.5 units/mL of the enzyme (with previous calibration) and 4.2 mM aqueous solution of the appropriate p-nitrophenyl glycopyranoside (substrate) buffered to the optimal pH of the enzyme. Enzyme and inhibitor were preincubated for 5 min at room temperature, and the reaction started by addition of the substrate. After 20 min of incubation at 37 °C, the reaction was stopped by the addition of 0.1 mL of sodium borate solution (pH 9.8). The p-nitrophenolate formed was measured by visible absorption spectroscopy at 405 nm (Asys Expert 96 spectrophotometer, Biochrom Ltd., Cambridge, England). Under these conditions, the p-nitrophenolate released led to optical densities linear with both reaction time and concentration of the enzyme (for more details, see the Supplementary Materials). The IC50 value (concentration of inhibitor required for 50% inhibition of enzyme activity) was determined from plots of % inhibition vs. different inhibitor concentrations. Each point of the graph is the average of four measures. The standard deviation for each point has been also represented in the graph.

[3] = tested on: β-glucosidase EC 3.2.1.21; assay: Commercial glycosidase screening; format: biochemical, almonds; settings: for % Inhibition at 0.1 mM, β-glucosidase almonds: 0.1 mM inhibitor
Description: as §3, §4

[4] = tested on: human fibroblasts derived from Gaucher patients; assay: Toxicity / cell viability in Gaucher patient fibroblasts during chaperoning assay; format: cell-based; settings: at 50 and 100 µM, 4 days
Description: as §1, §2
Fibroblasts with the N370S/RecNcil mutation from Gaucher disease patients were obtained from the “Cell line and DNA Biobank from patients affected by Genetic Diseases” (Gaslini Hospital, Genova, Italy). Fibroblasts cells (20.0 x 104) were seeded in T25 flasks with DMEM supplemented with fetal bovine serum (10%), penicillin/streptomycin (1%), and glutamine (1%) and incubated at 37 °C with 5% CO2 for 24 h. […] Enzyme activity was measured as reported above. […]

SMILES	GCase enzyme rescue (chaperoning activity) [1]	% Inhibition at 0.1 mM, β-mannosidase snail [2]	melting point [°C]	% Inhibition at 0.1 mM, β-glucosidase almonds [3]	pIC50 ([3]; read-out: IC50 (β-glucosidase from almonds))	toxicity / cell viability [4]
CCCCCCCCCO[C@H]1CNC[C@@H](O)[C@H]1O [compound 9, (3S, 4R, 5R)-4,5-Dihydroxy-3-(Nonyloxy) Piperidine]	did not impart any enzyme rescue; also recorded: None of the compounds gave enzyme rescue	–	–	–	–	–
CCCCCCCCCCCCN[C@H]1CNC[C@@H](O)[C@H]1O [compound 10, (3R, 4S, 5S)-3,4-Dihydroxy-5-(Dodecylamino) Piperidine]	failed to rescue the enzyme activity; also recorded: did not impart any enzyme rescue; also recorded: None of the compounds gave enzyme rescue	- (no inhibition detected)	92 to 94	51±1%	4.07	low cell viability; also recorded: remarkable toxicity
CCCCCCCC[C@]1(O)CNC[C@@H](O)[C@H]1O [compound 12, (3S, 4R, 5R)-3,4,5-Trihydroxy-3-Octyl-Piperidine]	did not impart any enzyme rescue; also recorded: None of the compounds gave enzyme rescue	- (no inhibition detected)	–	- (no inhibition detected)	–	–
CCCCCCCCCO[C@@H]1CNC[C@@H](O)[C@H]1O [compound 21, (3R, 4R, 5R)-4,5-Dihydroxy-3-(Nonyloxy) Piperidine]	–	- (no inhibition detected)	–	- (no inhibition detected)	–	–
